This passage reports IC50 and melting point results from US20100286193A1, “Novel Azabicyclo[3.2.1]Oct-2-Ene Derivatives and Their Use as Monoamine Neurotransmitter Re-Uptake Inhibitors” (priority 2005, published 2010).

Structures can show the parent of a compound that is named as a salt.

Series [1] has as its target T1, dopamine (DA) reuptake in synaptosomes (Rattus norvegicus, UniProt P23977).
T1 construct: in synaptosomes as described in WO 97/16451; from tissue
The experiment in a line: Inhibition of dopamine reuptake in synaptosomes. In kind it is biochemical. As to conditions: 3H-DA, as described in WO 97/16451, read-out: DA-uptake IC50.

Series [2] addresses T2, noradrenaline (NA) reuptake in synaptosomes (Rattus norvegicus, UniProt Q63380).
T2 construct: in synaptosomes as described in WO 97/16451; from tissue
Nature of the series: Inhibition of noradrenaline reuptake in synaptosomes. In kind it is biochemical. As to conditions: 3H-NA, as described in WO 97/16451, read-out: NA-uptake IC50.

Series [3] deals with T3, serotonine (5-HT) reuptake in synaptosomes (Rattus norvegicus, UniProt P31652).
T3 construct: in synaptosomes as described in WO 97/16451; from tissue
Nature of the series: Inhibition of serotonin reuptake in synaptosomes. Format: biochemical. As to conditions: 3H-5-HT, as described in WO 97/16451, read-out: 5-HT-uptake IC50.

One may read the IC50 as the concentration needed to halve the response being measured. The melting point is the temperature of the solid-liquid transition.

T1 sequence (P23977 whole entry): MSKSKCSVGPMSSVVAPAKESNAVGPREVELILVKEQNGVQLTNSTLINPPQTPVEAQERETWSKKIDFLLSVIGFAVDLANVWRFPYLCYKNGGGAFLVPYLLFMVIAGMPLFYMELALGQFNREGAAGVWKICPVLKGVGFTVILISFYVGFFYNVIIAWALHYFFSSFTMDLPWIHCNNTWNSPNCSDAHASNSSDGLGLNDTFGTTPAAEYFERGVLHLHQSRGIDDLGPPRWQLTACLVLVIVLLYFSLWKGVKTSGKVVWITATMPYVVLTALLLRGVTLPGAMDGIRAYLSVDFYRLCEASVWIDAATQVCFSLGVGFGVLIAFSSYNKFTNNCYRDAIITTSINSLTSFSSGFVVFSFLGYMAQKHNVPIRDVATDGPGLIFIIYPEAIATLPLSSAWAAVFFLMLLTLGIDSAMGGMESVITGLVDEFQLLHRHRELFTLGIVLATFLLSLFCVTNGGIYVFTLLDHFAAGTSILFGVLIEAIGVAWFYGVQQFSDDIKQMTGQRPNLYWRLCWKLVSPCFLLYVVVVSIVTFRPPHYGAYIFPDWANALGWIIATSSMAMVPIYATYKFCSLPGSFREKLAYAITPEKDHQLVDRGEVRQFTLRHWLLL
T2 sequence (Q63380 1-617): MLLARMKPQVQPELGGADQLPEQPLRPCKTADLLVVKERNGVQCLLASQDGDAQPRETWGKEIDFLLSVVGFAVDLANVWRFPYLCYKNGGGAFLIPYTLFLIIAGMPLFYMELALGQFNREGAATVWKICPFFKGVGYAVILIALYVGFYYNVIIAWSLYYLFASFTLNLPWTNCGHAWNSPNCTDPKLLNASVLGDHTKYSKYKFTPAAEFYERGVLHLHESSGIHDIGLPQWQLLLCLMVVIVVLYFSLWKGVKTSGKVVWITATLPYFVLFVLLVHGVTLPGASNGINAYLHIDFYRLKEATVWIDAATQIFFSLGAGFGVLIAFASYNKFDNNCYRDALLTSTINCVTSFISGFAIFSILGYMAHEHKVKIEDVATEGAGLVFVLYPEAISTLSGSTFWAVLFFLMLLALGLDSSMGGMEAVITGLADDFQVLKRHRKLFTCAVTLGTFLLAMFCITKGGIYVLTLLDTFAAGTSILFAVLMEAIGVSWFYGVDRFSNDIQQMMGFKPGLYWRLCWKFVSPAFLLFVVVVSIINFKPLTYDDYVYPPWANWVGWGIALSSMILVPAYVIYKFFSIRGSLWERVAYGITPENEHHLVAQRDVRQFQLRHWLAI
T3 sequence (P31652 whole entry): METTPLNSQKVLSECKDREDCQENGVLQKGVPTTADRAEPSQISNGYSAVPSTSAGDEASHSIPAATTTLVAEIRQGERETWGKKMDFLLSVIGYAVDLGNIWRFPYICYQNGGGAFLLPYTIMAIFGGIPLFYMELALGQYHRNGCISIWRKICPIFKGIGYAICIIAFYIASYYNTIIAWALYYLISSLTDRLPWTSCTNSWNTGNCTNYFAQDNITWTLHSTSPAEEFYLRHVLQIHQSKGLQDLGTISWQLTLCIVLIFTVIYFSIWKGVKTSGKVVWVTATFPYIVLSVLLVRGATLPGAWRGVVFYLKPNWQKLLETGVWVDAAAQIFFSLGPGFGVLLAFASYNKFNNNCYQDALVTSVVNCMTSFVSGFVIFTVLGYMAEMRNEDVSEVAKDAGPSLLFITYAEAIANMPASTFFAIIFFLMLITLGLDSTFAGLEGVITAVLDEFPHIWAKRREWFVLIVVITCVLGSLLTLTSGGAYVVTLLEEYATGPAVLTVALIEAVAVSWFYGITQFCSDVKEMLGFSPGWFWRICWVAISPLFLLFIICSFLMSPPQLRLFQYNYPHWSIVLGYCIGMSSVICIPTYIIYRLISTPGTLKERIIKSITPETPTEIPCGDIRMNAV

In the case of `Cc1ccc(C2=CC3CCC(C2)N3)cc1Br` (racemic) [(±)-3-(3-Bromo-4-methylphenyl)-8-H-8-azabicyclo[3.2.1]oct-2-ene hydrochloric acid salt], the IC50 in series [1] was determined as 13 nM; in series [2], 15 nM; in series [3], 1.4 nM.

Molecule `Cc1cc(C2=CC3CCC(C2)N3)ccc1Cl` (single isomer, unassigned; (+)) (as salt: tartaric acid salt) [(+)-3-(4-Chloro-3-methylphenyl)-8-H-8-azabicyclo[3.2.1]oct-2-ene D-tartaric acid salt] showed a melting point of 164 to 177 °C.

As to `Cc1cc(C2=CC3CCC(C2)N3)ccc1Cl` (single isomer, unassigned; (+)) [(+)-3-(4-Chloro-3-methylphenyl)-8-H-8-azabicyclo[3.2.1]oct-2-ene D-tartaric acid salt], the IC50 in series [1] was 110 nM; in series [2], 8.2 nM; in series [3] it was 2.3 nM.

`Cc1ccc(C2=CC3CCC(C2)N3)cc1Cl` (single isomer, unassigned; (-)) (as salt: tartaric acid salt) [(−)-3-(3-Chloro-4-methylphenyl)-8-H-8-azabicyclo[3.2.1]oct-2-ene L-tartaric acid salt] gave a melting point of 156.3 to 161.5 °C.

In the case of `Cc1ccc(C2=CC3CCC(C2)N3)cc1Cl` (single isomer, unassigned; (-)) [(−)-3-(3-Chloro-4-methylphenyl)-8-H-8-azabicyclo[3.2.1]oct-2-ene L-tartaric acid salt], the IC50 in series [1] is 140 nM; in series [2], 6.8 nM; in series [3] it was 1.8 nM.
